Earlier results as cited in patent US9474524B2, “Packaged antimicrobial medical device having improved shelf life and method of preparing same” (Ethicon, Inc., priority 2002, dated 2016).

System: S. aureus
Details: suitable growth medium; Bhargava, H. et al, American Journal of Infection Control, June 1996

Oc1cc(Cl)ccc1Oc1ccc(Cl)cc1Cl [2,4,4′-trichloro-2′-hydroxydiphenyl ether]
minimum inhibitory concentration (MIC) against S. aureus: 0.01 ppm
